What was measured:
[1] = tested on: ocular hypertension model; assay: Ocular tension lowering effect in rabbit ocular hypertension model (eye drops); format: in vivo, New Zealand white rabbits; conditions: 50 μl by dropping; for AUC (area between the ocular tension curves of control group and drug application group): over 2 hours; for Maximum value of the lowered ocular tension: over 2 hours at intervals of 30 minutes
Description: New Zealand white rabbits each weighing 2 to 3 kg were used.
According to the method reported by Kurihara et al. [Ophthalmologic Pharmacology 4, 62-64, (1990)], an ocular hypertension model was prepared to examine the ocular tension lowering effect of the test compounds. After general anaesthesia with urethane, the ocular tension of the test rabbit was determined by use of a tonometer (Alcon Applanation Pneumatonography).
After a local anaesthetic was applied to the rabbit eye by dropping, 0.1 ml of 5% sodium chloride solution was injected into the vitreous body through a 30-gauge injection needle. At the time, 30 minutes after injection, when ocular hypertension was confirmed, 50 μl of a sample solution was applied by dropping. Then, the ocular tension was determined over 2 hours at intervals of 30 minutes.
The area (AUC) between the ocular tension curve obtained from the control group (without drug application) and that obtained from the drug application group, and the maximum value of the lowered ocular tension were calculated to regard as the indices of ocular tension lowering effect.

[2] = eye application; cited from earlier work

SMILES	AUC (area between the ocular tension curves of control group and drug application group) ([1]; applied concentration 1.0%) [mmHg · hr]	Maximum value of the lowered ocular tension ([1]; applied concentration 1.0%) [mmHg]	other results
CCCc1nc(C(C)C)c(C(=O)O)n1Cc1ccc(-c2ccccc2-c2nn[nH]n2)cc1 [Compound C]	3.98	2.7	–
CCCc1nc(CC)c(C(=O)O)n1Cc1ccc(-c2ccccc2-c2nn[nH]n2)cc1 [Compound D]	–	–	AUC (area between the ocular tension curves of control group and drug application group) ([1]; applied concentration 0.2%): 6.21 mmHg · hr; Maximum value of the lowered ocular tension ([1]; applied concentration 0.2%): 6.4 mmHg
CCCc1nc(C(C)(C)O)c(C(=O)O)n1Cc1ccc(-c2ccccc2-c2nn[nH]n2)cc1 [Compound A]	11.18	9.8	–
CCCCc1nc(Cl)c(CO)n1Cc1ccc(-c2ccccc2-c2nnn[nH]2)cc1 [DUP 753, reference compound]	0.28	1.3	AUC (area between the ocular tension curves of control group and drug application group) ([1]; applied concentration 3.0%): 2.38 mmHg · hr; Maximum value of the lowered ocular tension ([1]; applied concentration 3.0%): 3.5 mmHg
CCCCC(=O)N(Cc1ccc(-c2ccccc2-c2nnn[nH]2)cc1)CC1(C(=O)O)CCCC1 [CGP 49870]	–	–	ocular tension lowering activity [2]: showed ocular tension lowering activity
CCCc1nc(C(C)O)c(C(=O)O)n1Cc1ccc(-c2ccccc2-c2nn[nH]n2)cc1 (stereo not drawn) [Compound G]	5.45	8.6	–
CCCCC(=O)N(Cc1ccc(-c2ccccc2-c2nnn[nH]2)cc1)[C@H](C(=O)O)C(C)C [CGP 48933]	–	–	ocular tension lowering activity [2]: showed ocular tension lowering activity
CCCc1nc(C(C)(C)O)c(C(=O)O)n1Cc1ccc(-c2ccccc2C(=O)O)cc1 [Compound B]	3.21	2.6	–
CCCc1nc(C(C)(C)O)c(C(=O)O)n1Cc1ccc(-c2ccccc2C(=O)C(=O)O)cc1 [Compound H]	5.58	8.6	–
CCCc1nc(C(C)(C)O)c(C(=O)O)n1Cc1ccc(-c2nn[nH]n2)cc1 [Compound F]	4.93	4.7	–
CCc1nc2cccc(C(=O)O)c2n1Cc1ccc(-c2ccccc2C(=O)C(=O)O)cc1 [Compound I]	5.33	7.3	–
CCCCc1nc(C(C)(C)O)c(C(=O)O)n1Cc1ccc(-c2ccccc2C(=O)O)cc1 [Compound E]	4.90	7.6	–
